# Measured values as given in paper PMC11952846, “The sterol-regulating human ARV1 binds cholesterol and phospholipids through its conserved ARV1 homology domain” (The Journal of Biological Chemistry, 2025).
# Numbering of substitutions follows the chain as printed. “Also recorded” adds a separate entry of the source.
# How the values were obtained:
# GST-Annexin A2 = GST-Annexin A2 (Homo sapiens, UniProt P07355); assay: Protein-lipid liposome binding assay (positive control protein); conditions: protein detected in final pellet
# Protocol: (§1) Lyophilized lipids were reconstituted in chloroform at 10 mg/ml and stored in glass tubes with Teflon tops at −20 °C until use. One milliliter of 10 mg/ml stock was dried under a stream of nitrogen in a glass tube until a lipid cake/film was formed. The lipid cake was then rehydrated in BLT rehydration buffer (5 mM Tris/HCl, pH 7.4, containing 150 mM NaCl) to a concentration of 1 mg/ml. Lipid suspensions were subjected to three freeze/thaw cycles using a dry ice ethanol/[…] water bath to encapsulate the buffer and improve liposome formation. The suspension and lipid extruder were equilibrated to temperature for 10 min and liposomes were extruded using […] polycarbonate membranes (Avestin). Liposomes were made by mixing stock lipid PL (1 mg/ml) with PC (10 mg/ml).
# (§2) Liposomes were serial diluted in floatation buffer (100 mM NaCl, 2 mM EDTA, pH 5.5) to a final concentration of 0.1 mg/ml. Nine hundred microliters of liposome solution was placed in clear ultracentrifuge tubes and mixed with 100 μl of 0.01 μg/ml of protein. The liposome/protein solution was incubated at room temperature for 1 h with occasional shaking. An initial 100 μl of liposome/protein solution (liposomes) was removed and the remaining 900 μl was centrifuged at 50,000g for 20 min at 4 °C. The pellet was resuspended in 800 μl of fresh floatation buffer, centrifuged as above, and 800 μl of supernatant was removed (wash 1). This was repeated a second time and again 800 μl of supernatant was removed (wash 2). The final pellet was resuspended in 100 μl of floatation buffer plus SDS treatment buffer (pellet). Thirty microliters of each fraction was run on a 15% SDS-PAGE gel and probed with an anti-GST monoclonal antibody at a 1:1500 dilution.
# 6XHIS-N98 K54/K59A = target: T1, 6XHIS-N98 K54/K59A (Homo sapiens, UniProt Q9H2C2, K54A/K59A); assay: HTRF phospholipid lipid-binding assay, mutant; set-up: key: NC, no change; conditions: biotinylated lipid; NC = no change vs N98
# T1 construct: made in house; host or cells: E. coli BL21
# T1 sequence (Q9H2C2 1-98 K54A/K59A): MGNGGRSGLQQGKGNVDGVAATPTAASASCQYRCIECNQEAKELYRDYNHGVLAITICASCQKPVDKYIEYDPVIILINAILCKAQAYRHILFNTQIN
# From the text: (§3) An HTRF assay was developed for 6XHIS-ARV1-N98-lipid binding. HTRF measures analyte interactions through fluorescence resonance energy transfer technology and time-resolved measurements ([53]). The interaction between two molecules can be quantified through binding each individual molecule involved with a fluorescent label and then analyzing the transfer of energy between the initial donor fluorophore and the secondary acceptor fluorophore. Following excitation of the first fluorophore, transfer of energy can only occur if the molecules bound with the fluorescent tags are within proximity to each other.
# (§4) Assays were plated in 384-well flat bottom microplates (Greiner Bio, catalog #784075-25). Proteins were diluted using binding buffer (20 mM Hepes buffer, pH 7.2, containing 0.1% BSA, and 0.01% Tween20) to a stock concentration of 0.75 μM, and biotinylated phospholipids were dispensed, dried under nitrogen gas, and resuspended in binding buffer to a stock concentration of 50 μM. The lipid stock solution was diluted by 1:2 for a series of 12 serial dilutions. For the assay, in sequential order, 6 μl of binding buffer was loaded into the plate in triplicate for each dilution of phospholipid. To this, 2 μl of 0.75 μM 6XHIS-ARV1-N98 was added, followed by 2 μl of biotinylated phospholipid. Immediately following each addition loaded into the plate, the plate was centrifuged for 1 min at 1000 rpm to bring the contents to the bottom of the well. Next, detection antibodies were mixed with detection buffer (20 mM Hepes buffer, pH 8.5, containing 0.01% BSA and 200 mM KF). Antibodies were a MAb anti-6XHIS Europium kryptate-conjugated D1 fluorescent antibody (Cisbio, #61HISKLA) and Streptavidin-conjugated d2 fluorescent antibody (Cisbio, #610SADLA). For each 1000 μl of detection buffer, 5 μl of each antibody was added just prior to loading 10 μl into each well. The plate was again centrifuged for 1 min at 1000 rpm and stored in a sealed container overnight, in the dark. Plates were read on a PerkinElmer EnVision Xcite Multilabel plate reader.
# (§5) Curves were logarithmically transformed and normalized to a common scale before being fit with a nonlinear regression of the agonist against the normalized response. This generated half maximal effective concentration values (EC50; M) that could then be compared between different lipids. In the context of our study, EC50 values were defined as a measure of protein sensitivity to binding to a particular lipid within a dose response curve. For phospholipid competition analysis, IC50; M values were determined using nonlinear regression of the inhibitor against normalized response.
# 6XHIS-N98 D72A = target: T2, 6XHIS-N98 D72A (Homo sapiens, UniProt Q9H2C2, D72A); assay: HTRF phospholipid lipid-binding assay, mutant; set-up: key: NC, no change; conditions: biotinylated lipid; NC = no change vs N98
# T2 construct: made in house; host or cells: E. coli BL21
# T2 sequence (Q9H2C2 1-98 D72A): T1 sequence (Q9H2C2 1-98 K54A/K59A) with A54K, A59K, D72A
# From the text: as §3, §4, §5
# 6XHIS-N98 N94Q = target: T3, 6XHIS-N98 N94Q (Homo sapiens, UniProt Q9H2C2, N94Q); assay: HTRF phospholipid lipid-binding assay, mutant; set-up: key: NC, no change; conditions: biotinylated lipid; NC = no change vs N98
# T3 construct: made in house; host or cells: E. coli BL21
# T3 sequence (Q9H2C2 1-98 N94Q): T1 sequence (Q9H2C2 1-98 K54A/K59A) with A54K, A59K, N94Q
# From the text: as §3, §4, §5
# 6XHIS-N98 N94A = target: T4, 6XHIS-N98 N94A (Homo sapiens, UniProt Q9H2C2, N94A); assay: HTRF phospholipid lipid-binding assay, mutant; set-up: key: NC, no change; conditions: biotinylated lipid; NC = no change vs N98
# T4 construct: made in house; host or cells: E. coli BL21
# T4 sequence (Q9H2C2 1-98 N94A): T1 sequence (Q9H2C2 1-98 K54A/K59A) with A54K, A59K, N94A
# From the text: as §3, §4, §5
# [1] = target: T5, GST-ARV1 (full-length ARV1) (Homo sapiens, UniProt Q9H2C2); assay: Protein-lipid liposome binding assay (ultracentrifugation, Western blot); conditions: protein detected in final pellet
# T5 construct: Expresses full length ARV1; made in house; host or cells: E. coli BL21 (pGEX-4T1)
# T5 sequence (Q9H2C2 1-271): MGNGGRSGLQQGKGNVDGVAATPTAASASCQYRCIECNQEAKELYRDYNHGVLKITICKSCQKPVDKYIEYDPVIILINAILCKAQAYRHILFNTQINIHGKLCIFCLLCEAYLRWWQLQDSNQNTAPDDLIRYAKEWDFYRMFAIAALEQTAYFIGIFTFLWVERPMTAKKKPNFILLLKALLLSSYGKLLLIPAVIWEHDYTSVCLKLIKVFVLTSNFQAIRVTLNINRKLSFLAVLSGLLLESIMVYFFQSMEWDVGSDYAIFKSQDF
# Protocol: as §1
# Cholesterol composition liposomes were rehydrated with cholesterol rehydration buffer (10 mM Hepes, pH 7.4, containing 150 mM KCl).
# as §2
# GST-Annexin A2, sequence (P07355 whole entry): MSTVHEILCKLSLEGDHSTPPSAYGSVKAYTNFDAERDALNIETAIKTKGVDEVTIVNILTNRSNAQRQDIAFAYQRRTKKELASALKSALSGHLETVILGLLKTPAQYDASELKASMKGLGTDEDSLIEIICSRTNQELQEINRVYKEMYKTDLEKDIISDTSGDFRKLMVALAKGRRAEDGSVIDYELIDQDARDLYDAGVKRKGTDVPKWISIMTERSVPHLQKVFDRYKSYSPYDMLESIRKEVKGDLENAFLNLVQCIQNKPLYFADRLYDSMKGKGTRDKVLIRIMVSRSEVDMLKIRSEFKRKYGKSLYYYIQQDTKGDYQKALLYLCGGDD
binding to PC:PL liposomes (GST-Annexin A2),"Bio-PL, EC50, M ± S.D. (6XHIS-N98 K54/K59A)","Bio-PL, EC50, M ± S.D. (6XHIS-N98 D72A)","Bio-PL, EC50, M ± S.D. (6XHIS-N98 N94Q)","Bio-PL, EC50, M ± S.D. (6XHIS-N98 N94A)",binding to PC:PL liposomes [1],Compound
very weakly,NC,NC,NC,NC,very weakly,phosphatidylcholine [PC]
Neither,NC,NC,NC,NC,Neither,phosphatidylethanolamine [PE]
bound,reduced binding,reduced binding,reduced binding,reduced binding,bound,"CCCCCCCCCCCCCCCC(=O)OC[C@H](COP(=O)(O)O)OC(=O)CCCCCCCCCCCCCCC [PA, phosphatidic acid]"
bound,NC,NC,NC,NC,bound,"CCCCC/C=C\C/C=C\CCCCCCCC(=O)OC[C@H](COP(=O)(O)OCC(O)COP(=O)(O)OC[C@@H](COC(=O)CCCCCCC/C=C\C/C=C\CCCCC)OC(=O)CCCCCCC/C=C\C/C=C\CCCCC)OC(=O)CCCCCCC/C=C\C/C=C\CCCCC (stereo partly drawn) [CL, cardiolipin]"

Compound,binding to PC:PL liposomes (GST-Annexin A2),"Bio-PL, EC50, M ± S.D. (6XHIS-N98 K54/K59A)","Bio-PL, EC50, M ± S.D. (6XHIS-N98 D72A)","Bio-PL, EC50, M ± S.D. (6XHIS-N98 N94Q)","Bio-PL, EC50, M ± S.D. (6XHIS-N98 N94A)",binding to PC:PL liposomes [1]
CCCCCC(=O)O[C@H](COC(=O)CCCCCNC(=O)CCCC[C@@H]1SC[C@@H]2NC(=O)N[C@@H]21)COP(=O)(O)O[C@H]1[C@H](O)[C@@H](O)[C@H](OP(=O)(O)O)[C@@H](O)[C@H]1O [reference compound],,,weakened,weakened,weakened; also recorded: reduction,
"CCCCCCCC/C=C\CCCCCCCC(=O)OC[C@H](COP(=O)(O)OCC(O)CO)OC(=O)CCCCCCC/C=C\CCCCCCCC (stereo partly drawn) [PG, phosphatidylglycerol]",bound,reduced,NC,NC,reduced,bound
"CCCCCCCCCCCCCCCCCC(=O)OC[C@H](COP(=O)(O)OC[C@H](N)C(=O)O)OC(=O)CCCCCCCCCCCCCCCCC [PS, phosphatidylserine]",bound,NC,NC,NC,NC,bound
